Test results from patent US20250338846A1, “COMPOSITIONS HAVING PESTICIDAL UTILITY AND PROCESSES RELATED THERETO” (CORTEVA AGRISCIENCE, LLC, priority 2022, published 2025).
“And” between values parts separate entries of the source, which are not always exact repeats. Equal entries are not always repeated.

How the values were obtained:
[1] = tested on: Green Peach Aphid (Myzus persicae, MYZUPE); experiment: Bioassay 1: Green Peach Aphid, foliar spray on infested cabbage seedlings, live aphids counted three days after treatment; format: in vivo
Method: Bioassay 1: Green Peach Aphid (Myzus persicae, MYZUPE) (“GPA”).
The stock solutions were prepared with Formula One as well as for each of the active ingredients individually. Test solutions were prepared from the stock solutions. Test solutions were prepared containing Formula One, the individual active ingredients, and mixtures of Formula One with each of the active ingredients. The test solutions for Formula One and the individual active ingredients were prepared by adding 750 microliters (μL) of stock solution to a 25 mL glass vial, then adding 750 μL of 1:1 acetone: methanol solvent, followed by the addition of 13.5 ml water with 0.025% Tween®) 20 to create a 0.0005% (weight/volume (w/v)) solution. The test solutions containing mixtures of Formula One and the individual active ingredients were prepared by adding 750 μL of the active ingredient stock solution to a 25 mL glass vial, followed by 750 μL of the Formula One stock solution, then by the addition of 13.5 mL water with 0.025% Tween®) 20 to create a test solution containing 0.0005% (w/v) Formula One and 0.0005% (w/v) of the active ingredient. Each test solution was serially diluted to create desired doses of test solutions (0.0005% (w/v), 0.000125% (w/v), 0.00003125% (w/v), 0.0000078% (w/v), 0.00000195% (w/v), and 0.0000005% (w/v)).
The test solutions were tested against GPA using the following procedure: Cabbage seedlings, grown in 3-inch pots with 2-3 small (3-5 centimeter (cm)) true leaves, were used as test substrate. The seedlings were infested with 20-50 GPA (wingless adult and nymph stages) one day prior to chemical application. Four pots with individual seedlings were used for each treatment. A hand-held aspirator-type sprayer was used for spraying a solution to both sides of […] leaves until runoff. Reference plants (solvent check) were sprayed with the diluent only (0.025% Tween®) 20 and 10% acetone:methanol (1:1) in water). Treated plants were held in a holding room for three days at approximately 25° C. and ambient relative humidity (RH about 20% to about 45%) prior to grading. Evaluation was conducted by counting the number of live aphids per plant under a microscope three days after treatment. Percent control was measured using Abbott's correction formula (W. S. Abbott, J. Econ. Entomol. 18 (1925), pp. 265-267) as follows:
where X=No. of live aphids on solvent check plants and Y=No. of live aphids on treated plants. In Table B1 the “Expected % Control” was calculated using the method described in Colby S. R., Weeds, 1967, 15, 20-22. Bioassay 2: Sweet Potato Whitefly (Bemisia tabaci, BEMITA) (“SPW”).

[2] = tested on: Western Tarnished Plant Bug (Lygus hesperus, LYGUHE); experiment: Bioassay 4: Western Tarnished Plant Bug, soaked green bean segments, living nymphs 3 days after application; format: in vivo
Method: where X=No. of live nymphs on solvent check leaf discs and Y=No. of live nymphs on treated leaf discs. In Table B3 the “Expected % Control” was calculated using the method described in Colby S. R., Weeds, 1967, 15, 20-22. Bioassay 4: Western Tarnished Plant Bug (Lygus hesperus, LYGUHE) (“WTPB”).
Stock solutions were prepared with Formula One as well as for each of the active ingredients individually. Test solutions were prepared from the stock solutions. Test solutions were prepared containing Formula One, the individual active ingredients, and mixtures of Formula One with each of the active ingredients. The test solution for Formula One was prepared by adding 500 μL of the stock solution to a 25 mL glass vial, then adding 500 μL of acetone, followed by the addition of 9 mL water with 0.025% Tween®) 20 to create a 0.04% (w/v) solution. The test solutions of the individual active ingredients were prepared by adding 500 μL of stock solution to a 25 mL glass vial, then adding 500 μL of acetone, followed by the addition of 9 mL water with 0.025% Tween®) 20 to create a 0.005% (w/v) solution. The test solutions containing mixtures of Formula One and the individual active ingredients were prepared by adding 500 μL of the active ingredient stock solution to a 25 mL glass vial, followed by 500 μL of the Formula One stock solution, then by the addition of 9 mL water with 0.025% Tween®) 20 to create a test solution containing 0.04% (w/v) Formula One and 0.005% (w/v) of the active ingredient. Each test solution was serially diluted to create desired doses of test solutions (0.005% (w/v), 0.00125% (w/v), 0.0003125% (w/v), 0.000078% (w/v), and 0.0000195% (w/v)). In test solutions containing mixtures of Formula One and the active ingredients, the active ingredients were diluted as described above, but the Concentration of Formula One was held constant (0.04% (w/v)).
The test solutions were tested against WTPB using the following procedure: Fresh green beans were cut into segments approximately 1.5 inches long. Four bean segments were added to each 25 mL vial containing the test solutions and soaked for approximately 15 minutes. After soaking, a single bean fragment was removed and placed into a single well of a 32-well rearing tray (Frontier Agricultural Sciences™), on top of a round filter paper disc. A reference treatment (solvent check) was treated with the diluent only. Each treatment was replicated four times and the test treatments were held at approximately 26° C. and ambient relative humidity (RH) prior to grading. Bean segments were allowed to air dry for ˜30 minutes. Three WTPB nymphs were added to and contained in each well with a clear perforated adhesive lid. The total number of living WTPB nymphs was recorded 3 days after application. Scoring was based off the total number of living nymphs out of all four replicates. Percent control was measured using Abbott's correction formula (W. S. Abbott, J. Econ. Entomol. 18 (1925), pp. 265-267) as follows:
X=No. of live nymphs on solvent check and Y=No. of live nymphs on treated bean segments. In Table B4 the “Expected % Control” was calculated using the method described in Colby S. R., Weeds, 1967, 15, 20-22. Bioassay 5: Neotropical Brown Stink Bug (Euschistus heros, EUSCHE) (“BSB”).

Cc1c(COC(=O)[C@@H]2[C@H](/C=C(\Cl)C(F)(F)F)C2(C)C)cccc1-c1ccccc1 (racemic) [Bifenthrin]
Average % Control AI ([1]; AI alone 0.78 (10^-5) % w/v): 52%
Average % Control AI ([2]; AI alone 0.00125 % w/v): 17%

CC1(C)[C@H](C(=O)O[C@H](C#N)c2cccc(Oc3ccccc3)c2)[C@@H]1/C=C(\Cl)C(F)(F)F (racemic) [Lambda Cyhalothrin]
Average % Control AI ([1]; AI alone 0.78 (10^-5) % w/v): 40%
Average % Control AI ([2]; AI alone 0.000078 % w/v): 0%

COP(=O)(NC(C)=O)SC (stereo not drawn) [Acephate]
Average % Control AI ([2]; AI alone 0.005 % w/v): 0%

C/C(=N\C#N)N(C)Cc1ccc(Cl)nc1 [Acetamiprid]
Average % Control AI ([1]; AI alone 0.78 (10^-5) % w/v): 24%
Average % Control AI ([2]; AI alone 0.00125 % w/v): 0%

CC[S+]([O-])c1c(C#N)nn(-c2c(Cl)cc(C(F)(F)F)cc2Cl)c1N (stereo not drawn) [Ethiprole]
Average % Control AI ([1]; AI alone 3.125 (10^-5) % w/v): 0%

CON=CNC(=O)c1ccc(C2=NOC(c3cc(Cl)cc(Cl)c3)(C(F)(F)F)C2)cc1C (stereo not drawn) [Fluxametamide]
Average % Control AI ([1]; AI alone 12.5 (10^-5) % w/v): 0%

CCN(C(=O)CCS(C)(=O)=O)c1sc(-c2cccnc2)nc1Cl [Formula F1, N-(4-chloro-2-(pyridin-3-yl)thiazol-5-yl)-N-ethyl-3-(methylsulfonyl)propanamide]
Average % Control F1 ([1]; F1 alone 0.05 (10^-5) % w/v): 29%
Average % Control F1 ([1]; F1 alone 0.195 (10^-5) % w/v): 13%
Average % Control F1 ([1]; F1 alone 0.78 (10^-5) % w/v): 28%
Average % Control F1 ([1]; F1 alone 3.125 (10^-5) % w/v): 30% and 35%
Average % Control F1 ([1]; F1 alone 12.5 (10^-5) % w/v): 39%

O=[N+]([O-])NC1=NCCN1Cc1ccc(Cl)nc1 [Imidacloprid]
Average % Control AI ([2]; AI alone 0.00125 % w/v): 13%

CN1COCN(Cc2cnc(Cl)s2)/C1=N\[N+](=O)[O-] [Thiamethoxam]
Average % Control AI ([2]; AI alone 0.0003125 % w/v): 65%

Abamectin
Average % Control AI ([2]; AI alone 0.00125 % w/v): 0%

Emamectin Benzoate
Average % Control AI ([1]; AI alone 3.125 (10^-5) % w/v): 21%
